Reference: patent US6667387B1, “HCV core peptides” (priority 1992, dated 2003)
Ends that are not written are not given here. * marks the point of attachment. Biotin = O=C1N[C@H]2[C@H](CS[C@H]2CCCCC(=O)*)N1

What was measured:
Type in all cases: binding, human
[1] = tested on: antibodies in antisera from HIV-1 infected persons; experiment: ELISA with HIV-1 antibody-positive sera (biotinylated peptides on streptavidin- or avidin-coated plates, unbiotinylated peptides coated directly)
Protocol: (§1) Where peptides were to be coated directly, stock solutions of the peptides were diluted in sodium carbonate buffer, pH 9.6 and used to coat polystyrene microtiter plates at a peptide concentration of 2 to 5 micrograms per milliliter for 1 hour at 37° C.
(§2) In cases where biotinylated peptides were to be evaluated, plates were first coated with streptavidin in sodium carbonate buffer, pH 9.6 at a concentration of 3 micrograms per milliliter for 1 hour at 37° C. The plates were then washed to remove excess, unbound protein. A working solution of the biotinylated peptide at 1 microgram per milliliter in sodium carbonate buffer was then added to the wells of the microtiter plate and incubated for 1 hours at 37° C.
(§3) Once the plates had been coated with antigen, any remaining free binding sites on the plastic were blocked with casein. After washing, a dilution of the appropriate antisera, usually 1:100, was added to the wells of the plates and incubated for 1 hour at 37° C.
(§4) After washing to remove unbound material, specific antibody binding was detected by incubating the plates with goat anti-human immunoglobulin antibodies conjugated to the enzyme horseradish peroxidase. Following removal of unbound conjugate by washing, a solution containing H2O2 and 3,3′,5,5′-tetramethylbenzidine was added.
(§5) Reactions were stopped after a suitable interval by addition of sulfuric acid. […] Absorbance measurements were made at a wavelength of 450 nanometers and all data are expressed as an optical density value at this wavelength.
Experiments were performed to evaluate antibody recognition of short, 10 amino acid-long, N-acetylated peptides corresponding to other contained within the transmembrane proteins of HIV-1 and HIV-2. […] The peptides used for the comparison were as follows:
Antibody binding to these peptides was compared to antibody binding to the unibiotinylated peptides which were coated directly onto microtiter plates.
In order to evaluate antibody recognition of these two peptides, the peptides were bound individually to streptavidin-coated microtiter plates and tested using a panel of antisera from HIV-1 seropositive donors.
(§6) To determine how well biotinylated peptides would function in a mixture when bound to streptavidin- or avidin-coated plates, two mixtures were made of the N-terminally biotinylated versions of the HIV-1 peptides TM-HIV-1 (hereabove referred to as 1a.1) and V3-nm (hereabove referred to as 1b.4), the HIV-2 peptide TM-HIV-2 (hereabove referred to as 2a), and the hepatitis C virus peptides II, IX, and XVIII. Mixture A contained each of the six biotinylated peptides at a concentration of 1 microgram per milliliter (6 micrograms per milliliter peptide, total) while in mixture B, each peptide was present at a concentration of 0.1 microgram per milliliter (0.6 microgram per milliliter peptide, total). The individual peptides were coated at a concentration of 1 microgram per milliliter. For purposes of comparison, mixtures A and B were also coated directly onto the wells of a microtiter plate. Samples from HIV-1, HIV-2, and HCV-seropositive donors were tested and compared to sera from seronegative blood donors. A cut-off absorbance value of 0.250 was used to determine whether a reaction was positive or negative. Absorbance values equal or greater than 0.250 were considered positive while absorbance values below this value were considered negative.
A spacer consisting of two glycine residues was added to the amino terminus.

[2] = tested on: antibodies in antisera from HIV-2 infected persons; experiment: ELISA with HIV-2 antibody-positive sera (biotinylated peptides on streptavidin- or avidin-coated plates, unbiotinylated peptides coated directly)
Protocol: as §1, §2, §3, §4, §5
The biotinylated peptides were loaded onto microtiter plates which had been coated with streptavidin. Antibody binding to these peptides was compared to antibody binding to the unibiotinylated peptides which were coated directly onto microtiter plates. It is evident that the biotinylated peptides from the HIV-1 or HIV-2 transmembrane proteins bound to streptavidin are recognized very well by antisera from HIV-1 or HIV-2 infected persons respectively. This is in contrast to the unbiotinylated versions of these peptides coated directly onto the polystyrene plates.
as §6
Two glycine residues were added at the N-terminus of each peptide to serve as a spacer and a biotin was coupled to the α-amino group of the resulting N-terminal glycine. The peptides were bound to streptavidin and coated in the wells of microwell plates. HIV-2 antibody-positive sera were used to evaluate these two peptides in an ELISA.

[3] = tested on: HIV-1 anti-V3 loop antibodies in sera; experiment: Line immunoassay (LIA) with HIV-1 gp120 V3 loop peptides; conditions: for recognition of peptide, % of sera: Table 15
Source text: In order to determine the general diagnostic value of the V3 loop region of gp120, nine peptides derived from this region of nine different HIV-1 isolates were synthesized and included in a LIA. All nine peptides were provided with a Gly-Gly spacer and an N-terminal biotin. The aligned peptides (one-letter amino acid code) sequences are as follows: (SEQ ID NOs: 154-162, respectively)
The peptides were mixed with streptavidin in a slight molar excess over biotin binding sites and the peptide:streptavidin complexes were separated from unbound material over Sephadex G-25. Material eluting in the void volume was used in the preparation of the LIA.
A total of 332 sera were tested which had been obtained from various geographical regions. […] The reactions of the various lines were evaluated as positive (i) or negative (o) (data not shown).
In total, 307 of the 332 sera gave a reaction to at least one peptide on the V3-loop LIA. […] The total number of positive sera tested was therefore 326. […] There were, however, significant geographical differences.

[4] = Table 8, serum 3990 (HIV-1), Avidin
[5] = Table 8, serum DV (HIV-1), Avidin
[6] = Table 8, serum PL (HIV-1), Avidin
[7] = Table 8, serum YS (HIV-1), Avidin
[8] = Table 8, serum 1400 (HIV-2), Avidin
[9] = Table 8, serum AG (HIV-2), Avidin
[10] = Table 14, HIV-V3 positive sera, 307
[11] = Table 14, gp120 positive sera, COUNT 326

## Bio-Gly-Gly-Gly-Ile-Trp-Gly-Cys-Ser-Gly-Lys-Leu-Ile-Cys-NH2 (Biotin-GGGIWGCSGKLIC-NH2; cysteine pairing not given here) [TM-HIV-1 Bio]
[1]; Table 1, serum 0724, HIV-1 positive
  optical density (450 nm): 2.570
[1]; Table 1, serum PL, HIV-1 positive
  optical density (450 nm): 1.559
[1]; Table 1, serum VE, HIV-1 positive
  optical density (450 nm): 2.551
[1]; Table 1, serum YEMO, HIV-1 positive
  optical density (450 nm): 2.357
[1]; Table 1, serum mm, HIV-1 positive
  optical density (450 nm): 2.579
[1]; Table 6, serum 0369/87, HIV positive
  optical density (450 nm): 2.042
[1]; Table 6, serum 0724, HIV positive
  optical density (450 nm): 2.291
[1]; Table 6, serum 1164, HIV positive
  optical density (450 nm): 1.919
[1]; Table 6, serum 1252, HIV positive
  optical density (450 nm): 2.356
[1]; Table 6, serum 2049, HIV positive
  optical density (450 nm): 2.058
[1]; Table 6, serum 3990, HIV positive
  optical density (450 nm): 1.870
[1]; Table 6, serum 4436, HIV positive
  optical density (450 nm): 2.110
[1]; Table 6, serum 4438, HIV positive
  optical density (450 nm): 1.697
[1]; Table 6, serum DV, HIV positive
  optical density (450 nm): 1.579
[1]; Table 6, serum MM, HIV positive
  optical density (450 nm): 2.308
[1]; Table 6, serum OOST 6, HIV positive
  optical density (450 nm): 2.003
[1]; Table 6, serum OOST 7, HIV positive
  optical density (450 nm): 2.027
[1]; Table 6, serum OOST 8, HIV positive
  optical density (450 nm): 2.237
[1]; Table 6, serum OOST 9, HIV positive
  optical density (450 nm): 2.222
[1]; Table 6, serum PL, HIV positive
  optical density (450 nm): 1.849
[1]; Table 6, serum VCM, HIV positive
  optical density (450 nm): 2.263
[1]; Table 6, serum VE, HIV positive
  optical density (450 nm): 2.240
[1]; [4]
  optical density (450 nm): 1.602
[1]; [5]
  optical density (450 nm): 1.329
[1]; [6]
  optical density (450 nm): 1.974
[1]; [7]
  optical density (450 nm): 0.046
[2]; Table 1, serum 53-3, HIV-2 positive
  optical density (450 nm): 0.000
[2]; Table 1, serum 1400, HIV-2 positive
  optical density (450 nm): 0.000
[2]; Table 1, serum AG, HIV-2 positive
  optical density (450 nm): 0.000
[2]; [8]
  optical density (450 nm): 0.051
[2]; [9]
  optical density (450 nm): 0.054

## Bio-Gly-Gly-Tyr-Asn-Lys-Arg-Lys-Arg-Ile-His-Ile-Gly-Pro-Gly-Arg-Ala-Phe-Tyr-Thr-Thr-Lys-Asn-Ile-Ile-Gly-NH2 (Biotin-GGYNKRKRIHIGPGRAFYTTKNIIG-NH2) [V3-mn Bio]
[3]; [10]
  % Reactive: 90%
  Total SUM (reactive sera), printed on the line COUNT: 275
[3]; [11]
  % Reactive: 84%
  Total SUM (reactive sera): 275
[3]; AFRICAN sera
  recognition of peptide, % of sera: 85%
[3]; BRAZILIAN sera
  recognition of peptide, % of sera: 78%
[3]; EUROPEAN sera
  recognition of peptide, % of sera: 97%
[1]; Table 2, sample 266
  optical density (450 nm): 2.591
[1]; Table 2, sample 3990
  optical density (450 nm), off scale: overflow* (Absorbance value greater than 3.000)
[1]; Table 2, sample 4436
  optical density (450 nm): 2.268
[1]; Table 2, sample 4438
  optical density (450 nm): 2.554
[1]; Table 2, sample DV
  optical density (450 nm): 2.881
[1]; Table 2, sample MM
  optical density (450 nm): 2.542
[1]; Table 2, sample OOST 4
  optical density (450 nm), off scale: overflow* (Absorbance value greater than 3.000)
[1]; Table 2, sample OOST 6
  optical density (450 nm): 2.355
[1]; Table 2, sample OOST 8
  optical density (450 nm), off scale: overflow* (Absorbance value greater than 3.000)
[1]; Table 2, sample PL
  optical density (450 nm): 2.351
[1]; Table 2, sample VE
  optical density (450 nm), off scale: overflow* (Absorbance value greater than 3.000)
[1]; Table 2, sample YS
  optical density (450 nm): 2.784
[1]; Table 3, serum 3990, peptide bound to avidin
  optical density (450 nm): 1.854
[1]; Table 3, serum 3990, peptide bound to streptavidin
  optical density (450 nm): 1.391
[1]; Table 3, serum 4436, peptide bound to avidin
  optical density (450 nm): 1.519
[1]; Table 3, serum 4436, peptide bound to streptavidin
  optical density (450 nm): 0.596
[1]; Table 3, serum DV, peptide bound to avidin
  optical density (450 nm): 1.748
[1]; Table 3, serum DV, peptide bound to streptavidin
  optical density (450 nm): 1.041
[1]; Table 3, serum PL, peptide bound to avidin
  optical density (450 nm): 0.983
[1]; Table 3, serum PL, peptide bound to streptavidin
  optical density (450 nm): 0.222
[1]; Table 3, serum VE, peptide bound to avidin
  optical density (450 nm): 1.908
[1]; Table 3, serum VE, peptide bound to streptavidin
  optical density (450 nm): 1.526
[1]; Table 3, serum YS, peptide bound to avidin
  optical density (450 nm): 1.721
[1]; Table 3, serum YS, peptide bound to streptavidin
  optical density (450 nm): 1.236
[1]; [4]
  optical density (450 nm): 2.319
[1]; [5]
  optical density (450 nm): 2.340
[1]; [6]
  optical density (450 nm): 1.321
[1]; [7]
  optical density (450 nm): 2.201
[2]; [8]
  optical density (450 nm): 0.055
[2]; [9]
  optical density (450 nm): 0.068

## ETWKKPDYEPPVVHGCPLPP
[1]; [4]
  optical density (450 nm): 0.056
[1]; [5]
  optical density (450 nm): 0.047
[1]; [6]
  optical density (450 nm): 0.052
[1]; [7]
  optical density (450 nm): 0.049
[2]; [8]
  optical density (450 nm): 1.362
[2]; [9]
  optical density (450 nm): 0.058

## IIPDREVLYREFDEMEECSQ
[1]; [4]
  optical density (450 nm): 0.066
[1]; [5]
  optical density (450 nm): 0.049
[1]; [6]
  optical density (450 nm): 0.056
[1]; [7]
  optical density (450 nm): 0.049
[2]; [8]
  optical density (450 nm): 0.052
[2]; [9]
  optical density (450 nm): 0.064

## PQRKTKRNTNRRPQDVKFPG
[1]; [4]
  optical density (450 nm): 0.054
[1]; [5]
  optical density (450 nm): 0.047
[1]; [6]
  optical density (450 nm): 0.052
[1]; [7]
  optical density (450 nm): 0.048
[2]; [8]
  optical density (450 nm): 0.121
[2]; [9]
  optical density (450 nm): 0.081
